Laboratory results as given in ChEMBL document CHEMBL1201862, “PubChem BioAssay data set” (2004).
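Step 1: Grow cells in 96-well plates. Step 2: Expose to compound for 48 hours at 5 concentrations. Step 3: Interpolate endpoints linearly; if unreached, use highest concentration. GI50 = concentration required for 50% inhibition of growth.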 Calls of active or inactive are those of the source. Cut-off read from the data, not from the text of the source: active = GI50 up to about 1.1 µM and inactive = higher.

Experiments:
Experiment in all cases: NCI tumour cell line growth inhibition, 48 h
LXFL 529 = system: LXFL 529
K562 = system: K562
SF-295 = system: SF-295
U-251 = system: U-251
HT-29 = system: HT-29
M14 = system: M14
SW-620 = system: SW-620
OVCAR-8 = system: OVCAR-8
SF-268 = system: SF-268
SNB-75 = system: SNB-75
SK-MEL-2 = system: SK-MEL-2
SNB-78 = system: SNB-78
786-0 = system: 786-0
SK-MEL-5 = system: SK-MEL-5
UACC-62 = system: UACC-62
HOP-18 = system: HOP-18
PC-3 = system: PC-3
DU-145 = system: DU-145
T47D = system: T47D
Hs-578T = system: Hs-578T

Measured: GI50

CC1=C(C(=O)Nc2ccc([N+](=O)[O-])cc2)C(c2ccccc2O)C(C(=O)Nc2ccc([N+](=O)[O-])cc2)=C(C)N1
inactive: LXFL 529 19.1 µM | K562 17.9 µM | SF-295 29.6 µM | U-251 21.4 µM | HT-29 28.4 µM | M14 19.3 µM | SW-620 29.2 µM | OVCAR-8 28.2 µM | SF-268 19.1 µM | SNB-75 25.8 µM | SK-MEL-2 15.6 µM | SNB-78 30.5 µM | 786-0 21.2 µM | SK-MEL-5 16.4 µM

O=S(=O)(C1=CC(S(=O)(=O)c2ccccc2)COC1)c1ccccc1 (configuration not stated)
inactive: LXFL 529 > 100 µM | K562 > 100 µM | UACC-62 > 100 µM | SF-295 > 100 µM | U-251 > 100 µM | HT-29 > 100 µM | M14 > 100 µM | SW-620 > 100 µM | OVCAR-8 > 100 µM | SF-268 > 100 µM | SNB-75 > 100 µM | SK-MEL-2 > 100 µM | 786-0 > 100 µM

CCSc1nc2sc(C)c(C)c2c(=O)n1-c1ccc(C(=O)O)cc1
inactive: K562 55.5 µM | UACC-62 > 100 µM | SF-295 40.9 µM | U-251 55.5 µM | HT-29 61 µM | M14 > 100 µM | SW-620 > 100 µM | OVCAR-8 72.4 µM | SF-268 27.2 µM | HOP-18 10.2 µM | SNB-75 13.6 µM | SK-MEL-2 > 100 µM | SNB-78 94 µM | 786-0 > 100 µM | SK-MEL-5 49 µM

Cc1cc(C)c(C(=O)O)c(N)c1O
inactive: LXFL 529 > 100 µM | K562 > 100 µM | UACC-62 > 100 µM | SF-295 > 100 µM | U-251 > 100 µM | HT-29 > 100 µM | M14 > 100 µM | SW-620 > 100 µM | OVCAR-8 > 100 µM | SF-268 > 100 µM | SNB-75 > 100 µM | SK-MEL-2 > 100 µM | 786-0 > 100 µM | SK-MEL-5 > 100 µM

NNC(=O)N/N=C1\CN(c2ccc(Cl)cc2Cl)C(=O)C(=O)C1c1nc2ccccc2o1 (configuration not stated)
inactive: LXFL 529 > 100 µM | K562 > 100 µM | UACC-62 > 100 µM | U-251 54.8 µM | HT-29 > 100 µM | M14 > 100 µM | SW-620 > 100 µM | OVCAR-8 > 100 µM | SF-268 > 100 µM | SNB-75 > 100 µM | SK-MEL-2 > 100 µM | SNB-78 39.1 µM | 786-0 > 100 µM | SK-MEL-5 > 100 µM

COc1ccc2c3c(c(C(=O)O)oc13)C(CCC(=O)O)CC2 (configuration not stated)
inactive: LXFL 529 > 100 µM | UACC-62 > 100 µM | SF-295 > 100 µM | U-251 > 100 µM | HT-29 > 100 µM | M14 > 100 µM | SW-620 > 100 µM | OVCAR-8 > 100 µM | HOP-18 > 100 µM | SNB-75 > 100 µM | SNB-78 > 100 µM | 786-0 > 100 µM | SK-MEL-5 > 100 µM

CCOC(=O)C(=O)Nc1cc(Cl)c(Cl)cc1Cl
inactive: LXFL 529 > 100 µM | K562 > 100 µM | UACC-62 > 100 µM | SF-295 > 100 µM | U-251 > 100 µM | HT-29 > 100 µM | M14 > 100 µM | SW-620 > 100 µM | OVCAR-8 > 100 µM | SF-268 > 100 µM | SNB-75 > 100 µM | SK-MEL-2 > 100 µM | SNB-78 > 100 µM | 786-0 > 100 µM | SK-MEL-5 > 100 µM

COc1cc(C(=O)N2CCc3c([nH]c4c([N+](=O)[O-])c(OC)ccc34)C2C)cc(OC)c1OC (configuration not stated)
inactive: LXFL 529 > 100 µM | K562 > 100 µM | UACC-62 20.1 µM | SF-295 > 100 µM | U-251 > 100 µM | HT-29 > 100 µM | M14 > 100 µM | SW-620 > 100 µM | OVCAR-8 > 100 µM | SF-268 29.8 µM | SNB-75 40.8 µM | SK-MEL-2 > 100 µM | SNB-78 58.7 µM | 786-0 > 100 µM

Cc1cnc2ccc(C)c([N+](=O)[O-])c2c1NCCCN(C)C
inactive: K562 > 100 µM | SF-295 > 100 µM | U-251 > 100 µM | HT-29 > 100 µM | M14 > 100 µM | SW-620 > 100 µM | OVCAR-8 > 100 µM | SF-268 > 100 µM | SK-MEL-2 > 100 µM | SNB-78 > 100 µM | 786-0 > 100 µM

CC(C)C12Cc3c(ccc4ccccc34)OC1(C)Oc1ccc3ccccc3c1C2 (configuration not stated)
inactive: LXFL 529 > 100 µM | K562 > 100 µM | UACC-62 > 100 µM | SF-295 > 100 µM | U-251 > 100 µM | HT-29 > 100 µM | M14 > 100 µM | SW-620 > 100 µM | OVCAR-8 > 100 µM | SF-268 > 100 µM | SNB-75 > 100 µM | SK-MEL-2 > 100 µM | SNB-78 > 100 µM | 786-0 > 100 µM | SK-MEL-5 > 100 µM

CCCCCCCCSC(=O)NCCCC
inactive: LXFL 529 37.8 µM | K562 38.2 µM | UACC-62 43 µM | SF-295 38.5 µM | U-251 35.5 µM | HT-29 26.4 µM | M14 25.8 µM | SW-620 75.3 µM | OVCAR-8 36.6 µM | SF-268 35.8 µM | HOP-18 94.6 µM | SNB-75 24.6 µM | SK-MEL-2 17.7 µM | 786-0 38.1 µM | SK-MEL-5 22.2 µM

O=C1Nc2ccccc2Nc2nc3cccccc-3c21
inactive: LXFL 529 > 100 µM | K562 > 100 µM | UACC-62 > 100 µM | SF-295 > 100 µM | U-251 > 100 µM | HT-29 > 100 µM | M14 > 100 µM | SW-620 > 100 µM | OVCAR-8 > 100 µM | SF-268 > 100 µM | SNB-75 > 100 µM | SK-MEL-2 > 100 µM | SNB-78 > 100 µM | 786-0 > 100 µM | SK-MEL-5 > 100 µM

O=C(CCl)Nc1ccc(C(=O)N/N=C/c2ccc(Cl)cc2)cc1
inactive: LXFL 529 1.71 µM | K562 2.89 µM | UACC-62 3.56 µM | SF-295 4.06 µM | PC-3 2.02 µM | U-251 1.78 µM | HT-29 1.67 µM | M14 6.41 µM | SW-620 2.74 µM | DU-145 3.02 µM | OVCAR-8 2.29 µM | T47D 2.51 µM | SF-268 2.07 µM | Hs-578T 2.82 µM | SNB-75 14.9 µM | SK-MEL-2 5.58 µM | SNB-78 3.52 µM | 786-0 1.58 µM | SK-MEL-5 5.77 µM

COc1ccc(OC)c(NC(=O)CCC/C(CC(=O)c2ccc(O)c(OC)c2)=N\Nc2nnc(C)n2N)c1
inactive: LXFL 529 > 100 µM | K562 32.4 µM | UACC-62 > 100 µM | SF-295 > 100 µM | U-251 > 100 µM | HT-29 > 100 µM | M14 > 100 µM | SW-620 > 100 µM | OVCAR-8 > 100 µM | SF-268 > 100 µM | HOP-18 > 100 µM | SNB-75 37.9 µM | SK-MEL-2 > 100 µM | 786-0 > 100 µM | SK-MEL-5 > 100 µM
